Assays:
Experiment in all cases: relative viability (nuclei count vs DMSO), 5 days (fraction); higher = more cells survive
HARA = tested on: HARA
Method in brief: (§1)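 Lung cancer cell lines were pin-tool dosed in 1536-well plates on the day after seeding, with either a lone drug or a fixed anchor-drug dose plus five library-drug doses (not always all listed) in √10 steps. Nuclei were counted on 4× images after 5 days. Relative viability is the ratio of treated-well to vehicle-well nuclei counts, with each value a median of duplicate plates.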

PC-14 = tested on: PC-14
Method in brief: as §1

NCI-H1993 = tested on: NCI-H1993
Method in brief: as §1

NCI-H1915 = tested on: NCI-H1915
Method in brief: as §1

NCI-H2347 = tested on: NCI-H2347
Method in brief: as §1

UMC-11 = tested on: UMC-11
Method in brief: as §1

LU99A = tested on: LU99A
Method in brief: as §1

NCI-H358 = tested on: NCI-H358
Method in brief: as §1

NCI-H650 = tested on: NCI-H650
Method in brief: as §1

NCI-H2126 = tested on: NCI-H2126
Method in brief: as §1

NCI-H1355 = tested on: NCI-H1355
Method in brief: as §1

NCI-H838 = tested on: NCI-H838
Method in brief: as §1

NCI-H1651 = tested on: NCI-H1651
Method in brief: as §1

EPLC-272H = tested on: EPLC-272H
Method in brief: as §1

COR-L23 = tested on: COR-L23
Method in brief: as §1

ABC-1 = tested on: ABC-1
Method in brief: as §1

NCI-H2023 = tested on: NCI-H2023
Method in brief: as §1

HOP-62 = tested on: HOP-62
Method in brief: as §1

SW 1573 = tested on: SW 1573
Method in brief: as §1

LC-2-ad = tested on: LC-2-ad
Method in brief: as §1

HCC-44 = tested on: HCC-44
Method in brief: as §1

NCI-H2085 = tested on: NCI-H2085
Method in brief: as §1

HCC-15 = tested on: HCC-15
Method in brief: as §1

## O=c1cc(-c2cccc3c2Sc2ccccc2S3)oc(N2CCOCC2)c1 + O=C(c1cc(Cc2n[nH]c(=O)c3ccccc23)ccc1F)N1CCN(C(=O)C2CC2)CC1 [Olaparib] (partner 8 µM)
HARA; first compound 0.08 µM
  relative viability: 1.13
HARA; first compound 0.253 µM
  relative viability: 0.711
HARA; first compound 0.8 µM
  relative viability: 0.774
HARA; first compound 2.53 µM
  relative viability: 0.629
HARA; first compound 8 µM
  relative viability: 0.777
PC-14; first compound 0.08 µM
  relative viability: 0.232
PC-14; first compound 0.253 µM
  relative viability: 0.214
PC-14; first compound 0.8 µM
  relative viability: 0.237
PC-14; first compound 2.53 µM
  relative viability: 0.169
PC-14; first compound 8 µM
  relative viability: 0.165
NCI-H1993; first compound 0.08 µM
  relative viability: 1.05
NCI-H1993; first compound 0.253 µM
  relative viability: 1.1
NCI-H1993; first compound 0.8 µM
  relative viability: 0.986
NCI-H1993; first compound 2.53 µM
  relative viability: 0.965
NCI-H1993; first compound 8 µM
  relative viability: 1.12
NCI-H1915; first compound 0.08 µM
  relative viability: 0.425
NCI-H1915; first compound 0.253 µM
  relative viability: 0.266
NCI-H1915; first compound 0.8 µM
  relative viability: 0.296
NCI-H1915; first compound 2.53 µM
  relative viability: 0.305
NCI-H1915; first compound 8 µM
  relative viability: 0.226
NCI-H2347; first compound 0.08 µM
  relative viability: 0.53
NCI-H2347; first compound 0.253 µM
  relative viability: 0.561
NCI-H2347; first compound 0.8 µM
  relative viability: 0.591
NCI-H2347; first compound 2.53 µM
  relative viability: 0.585
NCI-H2347; first compound 8 µM
  relative viability: 0.638
UMC-11; first compound 0.08 µM
  relative viability: 0.365
UMC-11; first compound 0.253 µM
  relative viability: 0.74
UMC-11; first compound 0.8 µM
  relative viability: 0.325
UMC-11; first compound 2.53 µM
  relative viability: 0.344
UMC-11; first compound 8 µM
  relative viability: 0.42
LU99A; first compound 0.08 µM
  relative viability: 0.251
LU99A; first compound 0.253 µM
  relative viability: 0.298
LU99A; first compound 0.8 µM
  relative viability: 0.296
LU99A; first compound 2.53 µM
  relative viability: 0.245
LU99A; first compound 8 µM
  relative viability: 0.214
NCI-H358; first compound 0.08 µM
  relative viability: 0.636
NCI-H358; first compound 0.253 µM
  relative viability: 0.676
NCI-H358; first compound 0.8 µM
  relative viability: 0.589
NCI-H358; first compound 2.53 µM
  relative viability: 0.64
NCI-H358; first compound 8 µM
  relative viability: 0.719
NCI-H650; first compound 0.08 µM
  relative viability: 0.397
NCI-H650; first compound 0.253 µM
  relative viability: 0.402
NCI-H650; first compound 0.8 µM
  relative viability: 0.424
NCI-H650; first compound 2.53 µM
  relative viability: 0.378
NCI-H650; first compound 8 µM
  relative viability: 0.415
NCI-H2126; first compound 0.08 µM
  relative viability: 1.06
NCI-H2126; first compound 0.253 µM
  relative viability: 0.991
NCI-H2126; first compound 0.8 µM
  relative viability: 1.01
NCI-H2126; first compound 2.53 µM
  relative viability: 0.9
NCI-H2126; first compound 8 µM
  relative viability: 0.91
NCI-H1355; first compound 0.08 µM
  relative viability: 0.801
NCI-H1355; first compound 0.253 µM
  relative viability: 0.916
NCI-H1355; first compound 0.8 µM
  relative viability: 0.65
NCI-H1355; first compound 2.53 µM
  relative viability: 0.717
NCI-H1355; first compound 8 µM
  relative viability: 0.573
NCI-H838; first compound 0.08 µM
  relative viability: 0.9
NCI-H838; first compound 0.253 µM
  relative viability: 1.1
NCI-H838; first compound 0.8 µM
  relative viability: 0.752
NCI-H838; first compound 2.53 µM
  relative viability: 0.715
NCI-H838; first compound 8 µM
  relative viability: 0.546
NCI-H1651; first compound 0.08 µM
  relative viability: 0.166
NCI-H1651; first compound 0.253 µM
  relative viability: 0.175
NCI-H1651; first compound 0.8 µM
  relative viability: 0.184
NCI-H1651; first compound 2.53 µM
  relative viability: 0.168
NCI-H1651; first compound 8 µM
  relative viability: 0.176
EPLC-272H; first compound 0.08 µM
  relative viability: 0.986
EPLC-272H; first compound 0.253 µM
  relative viability: 0.896
EPLC-272H; first compound 0.8 µM
  relative viability: 0.998
EPLC-272H; first compound 2.53 µM
  relative viability: 0.774
EPLC-272H; first compound 8 µM
  relative viability: 0.483
COR-L23; first compound 0.08 µM
  relative viability: 0.35
COR-L23; first compound 0.253 µM
  relative viability: 0.395
COR-L23; first compound 0.8 µM
  relative viability: 0.351
COR-L23; first compound 2.53 µM
  relative viability: 0.362
COR-L23; first compound 8 µM
  relative viability: 0.351
ABC-1; first compound 0.08 µM
  relative viability: 0.821
ABC-1; first compound 0.253 µM
  relative viability: 0.718
ABC-1; first compound 0.8 µM
  relative viability: 0.735
ABC-1; first compound 2.53 µM
  relative viability: 0.777
ABC-1; first compound 8 µM
  relative viability: 0.75
NCI-H2023; first compound 0.08 µM
  relative viability: 0.445
NCI-H2023; first compound 0.253 µM
  relative viability: 0.513
NCI-H2023; first compound 0.8 µM
  relative viability: 0.435
NCI-H2023; first compound 2.53 µM
  relative viability: 0.345
NCI-H2023; first compound 8 µM
  relative viability: 0.348
HOP-62; first compound 0.08 µM
  relative viability: 0.374
HOP-62; first compound 0.253 µM
  relative viability: 0.52
HOP-62; first compound 0.8 µM
  relative viability: 0.543
HOP-62; first compound 2.53 µM
  relative viability: 0.49
HOP-62; first compound 8 µM
  relative viability: 0.576
SW 1573; first compound 0.08 µM
  relative viability: 0.513
SW 1573; first compound 0.253 µM
  relative viability: 0.574
SW 1573; first compound 0.8 µM
  relative viability: 0.613
SW 1573; first compound 2.53 µM
  relative viability: 0.487
SW 1573; first compound 8 µM
  relative viability: 0.44
LC-2-ad; first compound 0.08 µM
  relative viability: 0.791
LC-2-ad; first compound 0.253 µM
  relative viability: 0.83
LC-2-ad; first compound 0.8 µM
  relative viability: 0.713
LC-2-ad; first compound 2.53 µM
  relative viability: 0.649
LC-2-ad; first compound 8 µM
  relative viability: 0.64
HCC-44; first compound 0.08 µM
  relative viability: 0.927
HCC-44; first compound 0.253 µM
  relative viability: 1.02
HCC-44; first compound 0.8 µM
  relative viability: 0.972
HCC-44; first compound 2.53 µM
  relative viability: 1.02
HCC-44; first compound 8 µM
  relative viability: 0.951
NCI-H2085; first compound 0.08 µM
  relative viability: 0.771
NCI-H2085; first compound 0.253 µM
  relative viability: 0.846
NCI-H2085; first compound 0.8 µM
  relative viability: 0.857
NCI-H2085; first compound 2.53 µM
  relative viability: 0.762
NCI-H2085; first compound 8 µM
  relative viability: 0.654
HCC-15; first compound 0.08 µM
  relative viability: 0.756
HCC-15; first compound 0.253 µM
  relative viability: 0.772
HCC-15; first compound 0.8 µM
  relative viability: 0.707
HCC-15; first compound 2.53 µM
  relative viability: 0.654
HCC-15; first compound 8 µM
  relative viability: 0.485
